Assay results taken from patent US20080009418A1, “Selective Inhibitors” (Alchemia LTD., priority 2004, published 2008).

Legend:
[1] = target: T1, Human δ-opioid (DOP) (Homo sapiens, UniProt P41143); experiment: Radioligand binding, human δ-opioid (DOP) membranes, FlashPlate, [3H]-Bremazocine; details: compound at 10 μM; [3H]-Bremazocine
T1 construct: purchased Perkin Elmer Biosignal
How it was run: (§1)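 Cloned human receptor membranes were coated onto FlashPlate wells and incubated with radioligand and compound (added from a 0.5 mM DMSO daughter plate) for 1 hour at room temperature in the dark. Scintillation counting gave percent inhibition, with DMSO defining total and reference ligand defining non-specific binding.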

[2] = target: T2, Human κ-Opioid (KOP) (Homo sapiens, UniProt P41145); experiment: Radioligand binding, human κ-opioid (KOP) membranes, filtration, [3H]-Diprenorphine; details: compound at 10 μM; [3H]-Diprenorphine
T2 construct: purchased Perkin Elmer Biosignal
T2 sequence (P41145 whole entry): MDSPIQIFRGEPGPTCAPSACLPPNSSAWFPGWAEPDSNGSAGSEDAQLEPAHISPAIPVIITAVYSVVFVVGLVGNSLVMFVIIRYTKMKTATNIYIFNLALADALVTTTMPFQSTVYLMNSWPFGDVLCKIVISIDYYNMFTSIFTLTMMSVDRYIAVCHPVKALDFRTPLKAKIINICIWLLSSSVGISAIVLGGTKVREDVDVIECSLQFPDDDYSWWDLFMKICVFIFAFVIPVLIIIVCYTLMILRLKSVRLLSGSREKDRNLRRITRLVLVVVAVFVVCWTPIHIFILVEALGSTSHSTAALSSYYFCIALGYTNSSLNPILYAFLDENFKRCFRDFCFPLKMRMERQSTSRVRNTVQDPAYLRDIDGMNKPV
How it was run: (§2)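 Percent inhibition of radioligand binding measured on recombinant human membranes: NK1 with [125I]-Substance P, KOP with [3H]-Diprenorphine. Incubation 1 h at room temperature, then harvest onto 0.3% PEI-soaked filters, cold Tris-HCl pH 7.4 washes and scintillation counting; non-specific binding from reference ligand wells.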

[3] = target: T3, Human Melanocortin (MC3) (Homo sapiens, UniProt P41968); experiment: Radioligand binding, human melanocortin MC3 membranes, FlashPlate, [125I]-NDP-αMSH; details: compound at 10 μM; [125I]-NDP-αMSH
T3 construct: purchased Perkin Elmer Biosignal
T3 sequence (P41968 whole entry): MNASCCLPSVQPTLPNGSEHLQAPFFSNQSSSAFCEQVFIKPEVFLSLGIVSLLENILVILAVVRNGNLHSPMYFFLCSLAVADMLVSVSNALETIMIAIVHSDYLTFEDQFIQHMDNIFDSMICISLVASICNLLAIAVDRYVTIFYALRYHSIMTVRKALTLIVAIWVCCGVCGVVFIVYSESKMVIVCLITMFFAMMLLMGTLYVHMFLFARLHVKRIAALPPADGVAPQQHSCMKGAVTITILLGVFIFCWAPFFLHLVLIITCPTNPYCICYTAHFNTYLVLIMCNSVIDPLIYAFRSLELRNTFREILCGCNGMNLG
How it was run: as §1

[4] = target: T4, Human Melanocortin (MC4) (Homo sapiens, UniProt P32245); experiment: Radioligand binding, human melanocortin MC4 membranes, FlashPlate, [125I]-NDP-αMSH; details: compound at 10 μM; [125I]-NDP-αMSH
T4 construct: purchased Perkin Elmer Biosignal
T4 sequence (P32245 whole entry): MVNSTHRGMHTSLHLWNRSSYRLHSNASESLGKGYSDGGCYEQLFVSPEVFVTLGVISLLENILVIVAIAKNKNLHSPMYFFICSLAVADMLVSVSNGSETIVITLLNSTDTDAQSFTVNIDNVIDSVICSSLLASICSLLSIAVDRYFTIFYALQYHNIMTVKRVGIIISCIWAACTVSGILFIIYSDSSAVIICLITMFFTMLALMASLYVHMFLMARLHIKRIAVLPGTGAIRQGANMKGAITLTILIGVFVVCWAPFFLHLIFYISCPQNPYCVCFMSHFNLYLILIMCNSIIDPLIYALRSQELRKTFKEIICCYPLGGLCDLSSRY
How it was run: as §1

[5] = target: T5, Human melanocortin (MC5) (Homo sapiens, UniProt P33032); experiment: Radioligand binding, human melanocortin MC5 membranes, FlashPlate, [125I]-NDP-αMSH; details: compound at 10 μM; [125I]-NDP-αMSH
T5 construct: purchased Perkin Elmer Biosignal
T5 sequence (P33032 whole entry): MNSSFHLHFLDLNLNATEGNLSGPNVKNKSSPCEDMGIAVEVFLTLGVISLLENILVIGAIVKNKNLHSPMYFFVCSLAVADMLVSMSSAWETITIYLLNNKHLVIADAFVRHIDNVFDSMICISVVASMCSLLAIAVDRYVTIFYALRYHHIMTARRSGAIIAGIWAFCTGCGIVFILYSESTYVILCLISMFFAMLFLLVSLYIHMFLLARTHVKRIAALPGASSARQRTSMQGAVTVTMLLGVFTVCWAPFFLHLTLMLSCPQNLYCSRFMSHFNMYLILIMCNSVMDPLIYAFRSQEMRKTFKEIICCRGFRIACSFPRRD
How it was run: as §1

[6] = target: T6, Human melanin-concentrating hormone (MCH1) (Homo sapiens, UniProt Q99705); experiment: Radioligand binding, human melanin-concentrating hormone MCH1 membranes, FlashPlate, [125I]-S36057; details: compound at 10 μM; [125I]-S36057
T6 construct: purchased Perkin Elmer Biosignal
T6 sequence (Q99705 whole entry): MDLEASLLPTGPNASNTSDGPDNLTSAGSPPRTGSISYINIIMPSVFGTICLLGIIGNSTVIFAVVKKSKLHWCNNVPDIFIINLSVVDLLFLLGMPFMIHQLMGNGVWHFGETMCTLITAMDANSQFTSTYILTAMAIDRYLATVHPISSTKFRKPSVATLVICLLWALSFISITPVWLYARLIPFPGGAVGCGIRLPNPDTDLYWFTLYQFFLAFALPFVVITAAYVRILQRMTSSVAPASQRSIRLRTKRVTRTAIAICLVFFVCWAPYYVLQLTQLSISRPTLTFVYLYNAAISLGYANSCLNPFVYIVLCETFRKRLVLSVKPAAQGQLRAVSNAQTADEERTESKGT
How it was run: as §1

[7] = target: T7, Human μ-opioid (MOP) (Homo sapiens, UniProt P35372); experiment: Radioligand binding, human μ-opioid (MOP) membranes, FlashPlate, [3H]-Naloxone; details: compound at 10 μM; [3H]-Naloxone
T7 construct: purchased Perkin Elmer Biosignal
T7 sequence (P35372 whole entry): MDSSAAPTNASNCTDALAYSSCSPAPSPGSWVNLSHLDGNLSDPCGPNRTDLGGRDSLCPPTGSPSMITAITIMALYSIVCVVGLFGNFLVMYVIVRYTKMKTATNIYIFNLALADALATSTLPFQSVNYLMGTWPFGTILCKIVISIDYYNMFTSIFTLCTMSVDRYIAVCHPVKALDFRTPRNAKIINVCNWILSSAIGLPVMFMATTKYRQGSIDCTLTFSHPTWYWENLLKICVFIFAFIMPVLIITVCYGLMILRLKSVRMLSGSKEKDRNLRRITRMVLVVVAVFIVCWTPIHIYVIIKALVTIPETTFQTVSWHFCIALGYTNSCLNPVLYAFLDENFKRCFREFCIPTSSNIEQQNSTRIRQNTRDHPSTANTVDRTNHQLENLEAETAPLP
How it was run: as §1

[8] = target: T8, Human neurokinin (NK1) (Homo sapiens, UniProt P25103); experiment: Radioligand binding, human neurokinin NK1 membranes, filtration, [125I]-Substance P; details: compound at 10 μM; [125I]-Substance P
T8 construct: purchased Perkin Elmer Biosignal
T8 sequence (P25103 whole entry): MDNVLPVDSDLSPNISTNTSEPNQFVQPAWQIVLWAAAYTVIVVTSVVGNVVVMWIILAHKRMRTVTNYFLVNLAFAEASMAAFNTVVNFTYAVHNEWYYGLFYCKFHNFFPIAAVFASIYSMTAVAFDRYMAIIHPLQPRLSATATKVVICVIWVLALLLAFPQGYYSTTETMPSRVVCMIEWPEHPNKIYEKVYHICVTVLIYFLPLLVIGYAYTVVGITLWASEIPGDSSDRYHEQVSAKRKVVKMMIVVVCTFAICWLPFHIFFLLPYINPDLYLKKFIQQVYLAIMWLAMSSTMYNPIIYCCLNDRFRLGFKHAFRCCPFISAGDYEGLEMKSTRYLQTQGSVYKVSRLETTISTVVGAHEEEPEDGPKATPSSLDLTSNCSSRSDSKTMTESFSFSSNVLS
How it was run: as §2

[9] = target: T9, Human neuropeptide Y (NPY-Y1) (Homo sapiens, UniProt P25929); experiment: Radioligand binding, human neuropeptide Y NPY-Y1 membranes, FlashPlate, [125I]-PYY; details: compound at 10 μM; [125I]-PYY
T9 construct: purchased Perkin Elmer Biosignal
T9 sequence (P25929 1-384): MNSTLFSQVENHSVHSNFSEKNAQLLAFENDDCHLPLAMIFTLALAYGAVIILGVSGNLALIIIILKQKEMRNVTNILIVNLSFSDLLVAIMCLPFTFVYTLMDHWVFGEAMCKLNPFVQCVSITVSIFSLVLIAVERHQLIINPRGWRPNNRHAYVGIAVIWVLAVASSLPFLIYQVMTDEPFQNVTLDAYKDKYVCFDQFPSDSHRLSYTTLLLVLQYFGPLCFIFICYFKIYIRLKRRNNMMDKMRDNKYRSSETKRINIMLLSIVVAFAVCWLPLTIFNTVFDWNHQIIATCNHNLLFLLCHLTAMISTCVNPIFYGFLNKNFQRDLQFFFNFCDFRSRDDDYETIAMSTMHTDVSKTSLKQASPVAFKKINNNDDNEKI
How it was run: as §1

[10] = target: T10, Human opioid (ORL1) (Homo sapiens, UniProt P41146); experiment: Radioligand binding, human opioid ORL1 membranes, FlashPlate, [125I]-Nociceptin; details: compound at 10 μM; [125I]-Nociceptin
T10 construct: purchased Perkin Elmer Biosignal
T10 sequence (P41146 whole entry): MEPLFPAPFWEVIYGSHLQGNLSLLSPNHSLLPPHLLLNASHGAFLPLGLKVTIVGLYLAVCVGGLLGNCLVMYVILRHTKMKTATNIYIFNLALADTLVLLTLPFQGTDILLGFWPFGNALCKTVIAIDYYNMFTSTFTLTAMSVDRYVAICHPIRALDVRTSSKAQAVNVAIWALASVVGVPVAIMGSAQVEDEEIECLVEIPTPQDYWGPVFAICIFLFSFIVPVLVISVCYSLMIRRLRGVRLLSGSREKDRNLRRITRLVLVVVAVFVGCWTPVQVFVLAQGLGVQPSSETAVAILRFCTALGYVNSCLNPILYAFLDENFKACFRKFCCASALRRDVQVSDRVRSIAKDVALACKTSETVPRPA
How it was run: as §1

[11] = target: T11, Mouse urotensin (mUR2) (Mus musculus, UniProt Q8VIH9); experiment: Radioligand binding, mouse urotensin mUR2 membranes, FlashPlate, [125I]-Urotensin II; details: compound at 10 μM; [125I]-Urotensin II
T11 construct: purchased Perkin Elmer Biosignal
T11 sequence (Q8VIH9 1-385): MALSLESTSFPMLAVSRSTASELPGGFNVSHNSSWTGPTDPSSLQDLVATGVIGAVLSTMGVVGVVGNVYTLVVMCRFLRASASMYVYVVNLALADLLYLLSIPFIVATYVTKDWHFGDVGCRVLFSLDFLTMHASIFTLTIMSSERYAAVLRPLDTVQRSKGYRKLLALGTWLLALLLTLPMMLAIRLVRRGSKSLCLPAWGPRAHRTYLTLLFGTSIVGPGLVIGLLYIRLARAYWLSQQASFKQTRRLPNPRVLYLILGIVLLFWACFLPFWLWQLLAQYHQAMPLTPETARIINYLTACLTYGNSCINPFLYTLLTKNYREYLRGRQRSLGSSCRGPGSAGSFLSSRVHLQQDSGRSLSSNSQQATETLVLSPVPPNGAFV
How it was run: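 Cloned mouse urotensin (mUR2) receptor membranes from Perkin Elmer Biosignal were immobilized in FlashPlate microplates using a proprietary coating. Each well got 19.5 μl buffer, then 0.5 μl of DMSO, reference ligand, or compound. Adding 5 μl of [125I]-Urotensin II, diluted to 5× final concentration in binding buffer, started binding. Plates were sealed with TopSeal-A and incubated 1 hour at room temperature in the dark. Wells were counted for 30 seconds each on a TopCount after a 60-second delay, and percentage inhibition was calculated.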

T1 sequence (P41143 whole entry): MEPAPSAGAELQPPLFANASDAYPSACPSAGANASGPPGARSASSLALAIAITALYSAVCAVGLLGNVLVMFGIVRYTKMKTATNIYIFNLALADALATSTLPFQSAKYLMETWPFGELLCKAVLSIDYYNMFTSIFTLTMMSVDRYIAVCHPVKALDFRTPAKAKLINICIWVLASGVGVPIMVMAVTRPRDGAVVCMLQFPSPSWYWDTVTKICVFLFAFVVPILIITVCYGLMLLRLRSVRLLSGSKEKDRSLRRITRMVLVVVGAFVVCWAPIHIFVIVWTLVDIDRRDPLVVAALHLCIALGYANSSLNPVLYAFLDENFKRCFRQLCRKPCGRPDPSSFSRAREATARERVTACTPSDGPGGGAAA

SMILES	A1: inhibition of radioligand binding, human δ-opioid (DOP) [1]	A2: inhibition of radioligand binding, human κ-opioid (KOP) [2]	A3: inhibition of radioligand binding, human melanocortin (MC3) [3]	A4: inhibition of radioligand binding, human melanocortin (MC4) [4]	A5: inhibition of radioligand binding, human melanocortin (MC5) [5]	A6: inhibition of radioligand binding, human melanin-concentrating hormone (MCH1) [6]	A7: inhibition of radioligand binding, human μ-opioid (MOP) [7]	A8: inhibition of radioligand binding, human neurokinin (NK1) [8]	A9: inhibition of radioligand binding, human neuropeptide Y (NPY-Y1) [9]	A10: inhibition of radioligand binding, human opioid (ORL1) [10]	A11: inhibition of radioligand binding, mouse urotensin (mUR2) [11]	also measured
CSC1OC(COCc2ccc3ccccc3c2)C(O)C(OCc2ccc3ccccc3c2)C1NC(=O)CNC(=N)N (stereo not drawn) [compound 317]	− (“−” indicates less than 50% inhibition at 10 μM)	− (“−” indicates less than 50% inhibition at 10 μM)	− (“−” indicates less than 50% inhibition at 10 μM)	− (“−” indicates less than 50% inhibition at 10 μM)	+ (“+” indicates greater than 50% inhibition at 10 μM)	− (“−” indicates less than 50% inhibition at 10 μM)	− (“−” indicates less than 50% inhibition at 10 μM)	+ (“+” indicates greater than 50% inhibition at 10 μM)	− (“−” indicates less than 50% inhibition at 10 μM)	− (“−” indicates less than 50% inhibition at 10 μM)	− (“−” indicates less than 50% inhibition at 10 μM)	–
COC[C@H]1OC(OCc2ccc(-c3ccccc3)cc2)[C@H](NC(=O)CNC(=N)N)[C@@H](OCc2cccc(O)c2)[C@@H]1O (stereo partly drawn) [compound 129]	–	–	–	–	–	–	–	–	–	–	–	A1 radioligand binding, percentage inhibition [1]: − (“−” indicates less than 50% inhibition at 10 μM); A2 radioligand binding, percentage inhibition [2]: − (“−” indicates less than 50% inhibition at 10 μM); A3 radioligand binding, percentage inhibition [3]: − (“−” indicates less than 50% inhibition at 10 μM); A4 radioligand binding, percentage inhibition [4]: − (“−” indicates less than 50% inhibition at 10 μM); A5 radioligand binding, percentage inhibition [5]: − (“−” indicates less than 50% inhibition at 10 μM); A6 radioligand binding, percentage inhibition [6]: − (“−” indicates less than 50% inhibition at 10 μM); A7 radioligand binding, percentage inhibition [7]: + (“+” indicates greater than 50% inhibition at 10 μM); A8 radioligand binding, percentage inhibition [8]: − (“−” indicates less than 50% inhibition at 10 μM); A9 radioligand binding, percentage inhibition [9]: − (“−” indicates less than 50% inhibition at 10 μM); A10 radioligand binding, percentage inhibition [10]: − (“−” indicates less than 50% inhibition at 10 μM); A11 radioligand binding, percentage inhibition [11]: − (“−” indicates less than 50% inhibition at 10 μM)
N=C(N)NCCC(=O)N[C@H]1C(OCc2ccc(Cl)cc2)O[C@H](COCc2ccccc2)[C@@H](O)[C@@H]1OCc1ccc2ccccc2c1 (stereo partly drawn) [compound 531]	− (“−” indicates less than 50% inhibition at 10 μM)	+ (“+” indicates greater than 50% inhibition at 10 μM)	+ (“+” indicates greater than 50% inhibition at 10 μM)	+ (“+” indicates greater than 50% inhibition at 10 μM)	+ (“+” indicates greater than 50% inhibition at 10 μM)	+ (“+” indicates greater than 50% inhibition at 10 μM)	+ (“+” indicates greater than 50% inhibition at 10 μM)	+ (“+” indicates greater than 50% inhibition at 10 μM)	− (“−” indicates less than 50% inhibition at 10 μM)	+ (“+” indicates greater than 50% inhibition at 10 μM)	− (“−” indicates less than 50% inhibition at 10 μM)	–
